How the values were obtained:
NKG2A+/NKG2C− NK cells = test: NK cell activation markers in NKG2A+/NKG2C- NK cells incubated with peptide and K562 expressing HLA-E (inhibition); assay type: cell-based, human; conditions: for percentage of CCL3+ NK cells / percentage of CD107a+ NK cells / percentage of IFNG+ NK cells / percentage of TNF+ NK cells: NKG2A+/NKG2C- NK cells, K562/HLA-E
In short: (§1)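 Percent of NK cells positive for cell-surface markers was measured after exposure to K562 targets expressing HLA-E and loaded with human- or HCMV-proteome-derived peptides. A decrease means inhibition, an increase activation; NKG2A−/NKG2C− cells served as controls.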

HLA-E = biological target: T1, HLA-E (Homo sapiens, UniProt P13747); test: HLA-E surface stabilization assay with RMA-S/HLA-E cells; assay type: cell-based; conditions: 30 μM peptide, 16 hours, anti-HLA-E antibody
T1 construct: expressed in transfected cells; host or cells: RMA-S/HLA-E cells (antigen processing-defective lymphoma cell line)
Protocol: HLA-E surface expression was assessed by measuring geometric mean fluorescence intensity (GeoMFI) in RMA-S cells following immunofluorescence staining with an anti-HLA-E antibody (Table 14). Increased GeoMFI was indicative of increased HLA-E surface expression stability following novel peptide exposures (FIG. 3).

NKG2A−/NKG2C+ NK cells = test: NK cell activation markers in NKG2A-/NKG2C+ NK cells incubated with peptide and K562 expressing HLA-E (activation); assay type: cell-based, human; conditions: for effect on NKG2A−/NKG2C+ NK cell activation (in words): K562 expressing HLA-E, CD107a, IFNG, TNF, CCL3; for percentage of CCL3+ NK cells / percentage of CD107+ NK cells / percentage of IFNG+ NK cells / percentage of TNF+ NK cells: NKG2A-/NKG2C+ NK cells, K562/HLA-E
In short: as §1

NKG2A−/NKG2C− NK cells = test: NK cell activation markers in control NKG2A-/NKG2C- NK cells incubated with peptide and K562 expressing HLA-E; assay type: cell-based, human
In short: as §1

HLA-E surface expression stability (GeoMFI) (HLA-E; Trial 1): 3783 GeoMFI
HLA-E surface expression stability (GeoMFI) (HLA-E; Trial 2): 4068 GeoMFI
HLA-E surface expression stability (GeoMFI) (HLA-E; Trial 3): 4205 GeoMFI
HLA-E surface expression stability (GeoMFI) (HLA-E; Trial 4): 4760 GeoMFI
Sequence: VMPPRTLLL [human15, peptide HLA-A 3-11 derived from the human proteome]
effect on NKG2A+/NKG2C− NK cell inhibition (in words) (NKG2A+/NKG2C− NK cells; K562 expressing HLA-E, CD107a, IFNG, TNF, CCL3): strong inhibitory
percentage of CCL3+ NK cells (NKG2A+/NKG2C− NK cells; Trial 1): 1.79%
percentage of CD107a+ NK cells (NKG2A+/NKG2C− NK cells; Trial 1): 0.49%
percentage of IFNG+ NK cells (NKG2A+/NKG2C− NK cells; Trial 1): 0.05%
percentage of TNF+ NK cells (NKG2A+/NKG2C− NK cells; Trial 1): 0.01%
percentage of CCL3+ NK cells (NKG2A+/NKG2C− NK cells; Trial 2): 1.6%
percentage of CD107a+ NK cells (NKG2A+/NKG2C− NK cells; Trial 2): 0.79%
percentage of IFNG+ NK cells (NKG2A+/NKG2C− NK cells; Trial 2): 0.3%
percentage of TNF+ NK cells (NKG2A+/NKG2C− NK cells; Trial 2): 0.27%
percentage of CCL3+ NK cells (NKG2A+/NKG2C− NK cells; Trial 3): 1.12%
percentage of CD107a+ NK cells (NKG2A+/NKG2C− NK cells; Trial 3): 0.73%
percentage of IFNG+ NK cells (NKG2A+/NKG2C− NK cells; Trial 3): 0.44%
percentage of TNF+ NK cells (NKG2A+/NKG2C− NK cells; Trial 3): 0.19%
percentage of CCL3+ NK cells (NKG2A+/NKG2C− NK cells; Trial 4): 0.75%
percentage of CD107a+ NK cells (NKG2A+/NKG2C− NK cells; Trial 4): 0.75%
percentage of IFNG+ NK cells (NKG2A+/NKG2C− NK cells; Trial 4): 0.2%
percentage of TNF+ NK cells (NKG2A+/NKG2C− NK cells; Trial 4): 0.18%
percentage of CCL3+ NK cells (NKG2A+/NKG2C− NK cells; Trial 5): 3.7%
percentage of CD107a+ NK cells (NKG2A+/NKG2C− NK cells; Trial 5): 1.04%
percentage of IFNG+ NK cells (NKG2A+/NKG2C− NK cells; Trial 5): 0.19%
percentage of TNF+ NK cells (NKG2A+/NKG2C− NK cells; Trial 5): 0.16%
percentage of CCL3+ NK cells (NKG2A+/NKG2C− NK cells; Trial 6): 2.09%
percentage of CD107a+ NK cells (NKG2A+/NKG2C− NK cells; Trial 6): 0.52%
percentage of IFNG+ NK cells (NKG2A+/NKG2C− NK cells; Trial 6): 0.24%
percentage of TNF+ NK cells (NKG2A+/NKG2C− NK cells; Trial 6): 0.05%
effect on NKG2A−/NKG2C+ NK cell activation (in words) (NKG2A−/NKG2C+ NK cells; listed as SEQ ID NO. 14): strong activating effects
effect on NKG2A−/NKG2C+ NK cell activation (in words) (NKG2A−/NKG2C+ NK cells; listed as h15): strong inhibitory and activating effects
percentage of CCL3+ NK cells (NKG2A−/NKG2C+ NK cells; Trial 1): 79.5%
percentage of CD107+ NK cells (NKG2A−/NKG2C+ NK cells; Trial 1): 78.4%
percentage of IFNG+ NK cells (NKG2A−/NKG2C+ NK cells; Trial 1): 66.7%
percentage of TNF+ NK cells (NKG2A−/NKG2C+ NK cells; Trial 1): 52.1%
percentage of CCL3+ NK cells (NKG2A−/NKG2C+ NK cells; Trial 2): 89.7%
percentage of CD107+ NK cells (NKG2A−/NKG2C+ NK cells; Trial 2): 86%
percentage of IFNG+ NK cells (NKG2A−/NKG2C+ NK cells; Trial 2): 79.9%
percentage of TNF+ NK cells (NKG2A−/NKG2C+ NK cells; Trial 2): 71.8%
percentage of CCL3+ NK cells (NKG2A−/NKG2C+ NK cells; Trial 3): 86.8%
percentage of CD107+ NK cells (NKG2A−/NKG2C+ NK cells; Trial 3): 88.2%
percentage of IFNG+ NK cells (NKG2A−/NKG2C+ NK cells; Trial 3): 78.8%
percentage of TNF+ NK cells (NKG2A−/NKG2C+ NK cells; Trial 3): 68.2%
percentage of CCL3+ NK cells (NKG2A−/NKG2C+ NK cells; Trial 4): 69%
percentage of CD107+ NK cells (NKG2A−/NKG2C+ NK cells; Trial 4): 68.9%
percentage of IFNG+ NK cells (NKG2A−/NKG2C+ NK cells; Trial 4): 60.9%
percentage of TNF+ NK cells (NKG2A−/NKG2C+ NK cells; Trial 4): 52.6%
percentage of CCL3+ NK cells (NKG2A−/NKG2C+ NK cells; Trial 5): 78.9%
percentage of CD107+ NK cells (NKG2A−/NKG2C+ NK cells; Trial 5): 78%
percentage of IFNG+ NK cells (NKG2A−/NKG2C+ NK cells; Trial 5): 71.9%
percentage of TNF+ NK cells (NKG2A−/NKG2C+ NK cells; Trial 5): 66.6%
percentage of CCL3+ NK cells (NKG2A−/NKG2C+ NK cells; Trial 6): 58.4%
percentage of CD107+ NK cells (NKG2A−/NKG2C+ NK cells; Trial 6): 56.2%
percentage of IFNG+ NK cells (NKG2A−/NKG2C+ NK cells; Trial 6): 44.1%
percentage of TNF+ NK cells (NKG2A−/NKG2C+ NK cells; Trial 6): 36.3%
percentage CCL3+ NK cells (NKG2A−/NKG2C− NK cells; Trial 1): 34%
percentage CD107+ NK cells (NKG2A−/NKG2C− NK cells; Trial 1): 25.7%
percentage TNF+ NK cells (NKG2A−/NKG2C− NK cells; Trial 1): 3.42%
percentage of IFNG+ NK cells (NKG2A−/NKG2C− NK cells; Trial 1): 15.5%
percentage CCL3+ NK cells (NKG2A−/NKG2C− NK cells; Trial 2): 55.5%
percentage CD107+ NK cells (NKG2A−/NKG2C− NK cells; Trial 2): 34.1%
percentage TNF+ NK cells (NKG2A−/NKG2C− NK cells; Trial 2): 9.68%
percentage of IFNG+ NK cells (NKG2A−/NKG2C− NK cells; Trial 2): 25.4%
percentage CCL3+ NK cells (NKG2A−/NKG2C− NK cells; Trial 3): 46.7%
percentage CD107+ NK cells (NKG2A−/NKG2C− NK cells; Trial 3): 43.7%
percentage TNF+ NK cells (NKG2A−/NKG2C− NK cells; Trial 3): 14.8%
percentage of IFNG+ NK cells (NKG2A−/NKG2C− NK cells; Trial 3): 34.7%
percentage CCL3+ NK cells (NKG2A−/NKG2C− NK cells; Trial 4): 34.3%
percentage CD107+ NK cells (NKG2A−/NKG2C− NK cells; Trial 4): 29.6%
percentage TNF+ NK cells (NKG2A−/NKG2C− NK cells; Trial 4): 10.3%
percentage of IFNG+ NK cells (NKG2A−/NKG2C− NK cells; Trial 4): 20.3%
percentage CCL3+ NK cells (NKG2A−/NKG2C− NK cells; Trial 5): 24.7%
percentage CD107+ NK cells (NKG2A−/NKG2C− NK cells; Trial 5): 18.9%
percentage TNF+ NK cells (NKG2A−/NKG2C− NK cells; Trial 5): 6.97%
percentage of IFNG+ NK cells (NKG2A−/NKG2C− NK cells; Trial 5): 14.7%
percentage CCL3+ NK cells (NKG2A−/NKG2C− NK cells; Trial 6): 26.4%
percentage CD107+ NK cells (NKG2A−/NKG2C− NK cells; Trial 6): 21.1%
percentage TNF+ NK cells (NKG2A−/NKG2C− NK cells; Trial 6): 5.43%
percentage of IFNG+ NK cells (NKG2A−/NKG2C− NK cells; Trial 6): 11.9%

From patent US20240092835A1, “NOVEL PEPTIDES CAPABLE OF ALTERING NK CELL ACTIVITY” (Massachusetts Institute of Technology, priority 2022, published 2024)
